In patent publication US6486161B1, “Use of rifamycin derivative for treating mastitis in a domestic animal” (priority 2000, dated 2002):
Values after ≈ are worked out from the molar mass of the structure shown. Read-outs that look alike come from different tables or passages of the source.

Key:
[1] = tested on: Staphylococcus aureus 9203; assay: S. aureus intracellular killing assay in bovine PMN; assay type: cell-based; settings: overnight incubation (18 to 21 hours)
Method: The therapeutic effect of the rifamycin derivative (1) was determined by S. aureus intracellular killing assay in bovine polymorphonuclear neutrophil (PMN).
The procedure for PMN isolation was as described in Carlton et al. (Proc. Soc. Exp. Biol. Med. 142: 853-858 (1973)).
Bovine blood collected by venipuncture in 50-ml syringes containing 1.5% EDTA (pH 6.8) was centrifuged at 1,000×g for 25 min. The plasma-buffer layer and the top few millileters were discarded. The packed erythrocyte fraction was pooled in 0.8% NaCl-phosphate buffer (pH 6.8) and 10 ml was placed in 20 ml of sterile water for 40 seconds to lyse the erythrocytes. Immediately thereafter, 10 ml of a 2.7% NaCl-phosphate buffer solution was added to restore isotonicity. The leukocytes, consisting of ≦84% PMNs, were washed twice and suspended in HBSS. PMNs were adjusted to a final concentration of 10^7 cells per ml.
The intracellular killing assay was carried out as described in Sanchez et al. (Antimicrobial Agents and Chemotherapy 29(4): 634-638 (1986)).
Bovine blood PMNs and bacteria (1:1) were suspended in HBSS containing 10% heterologous bovine serum. The mixture was incubated for 90 minutes at 37° C. in Erlenmeyer flasks with rotational mixing at 110 rpm. Lysostaphin (5 μg/ml) was added to the mixture for the final 15 minutes of incubation. The infected PMNs were washed 3 times by low-speed centrifugation and suspended in HBSS. Cells were pipetted (1 ml) into each well of a six-well cluster dish (Bellco Glass, Inc., Vineland, N.J.) at 5×10^6 PMNs per well. PMNs were allowed to attach and form a monolayer for 10 minutes at 37° C. The supernatant fluid with unattached cells was discarded, and 2 ml of fresh HBSS was added to each well. The rifamycin derivatives to be tested were then added to the wells (one six-well plate per drug). These derivatives were dissolved in dimethylsulfoxide, and then diluted in HBSS to final solvent concentrations of 0.01% (vol/vol) or less.
After overnight incubation (18 to 21 hours) at 37° C. with 1% CO2, lysostaphin (5 μg/ml) was added to each well for 15 min (at 37° C.) to kill extracellular bacteria. The monolayers were washed with HBSS, and the cells were lysed by addition of 1 ml of water to each well. The number of viable bacteria was then estimated by plate counts on brain heart infusion agar. […] The results are shown in Table 2, wherein R is the alkyl group in the rifamycin derivative (1).

[2] = tested on: Staphylococcus aureus 9203; assay: MIC against the strain of the intracellular killing assay; assay type: cell-based
Oral toxicity in mice = assay type: in vivo; settings: orally administered to mice, 1,000 mg/kg
[3] = tested on: Staphylococcus aureus 6097; assay: Dose titration in the mouse mastitis model (S. aureus-induced murine mastitis); assay type: in vivo; settings: mice, read 6 days after infection; for ED (mg/kg/d) Mastitis: 50% of mice without mastitis; for ED (mg/kg/d) Culture: 50% of mice with no bacteria cultured from gland
S. aureus B83-1 [4] = assay: Mutation frequency for resistance, strain B83-1; assay type: cell-based, Staphylococcus aureus
Method: (§1) The mutation frequency for development of resistance to the rifamycin derivative (1) as compared to rifampin was determined with selected Staphylococcus aureus strains.
(§2) Four S. aureus strains were used: S. aureus 30857, a rifampin-resistant isolate: S. aureus 6097, a strain used in the mouse mastitis test and originally from a case of gangrenous bovine mastitis; S. aureus B83-1, derived from the Newbould 305 strain; and S. aureus ATCC 29213, the in vitro control stain recommended by NCCLS.
(§3) All S. aureus strains were maintained on 3 mm glass beads immersed in trypticase soy broth (BBL Microbiology Systems, Cockeysville, Md.) with 10% glycerol and held at −70° C. until revived. Prior to testing, the strains were subcultured on tryptose blood agar base (Difco, Detroit, Mich.) supplemented with 5% sheep blood for 24 hours at 35° C.
(§4) These compounds were dissolved in 95% ethanol, a solution which was then diluted to 10% ethanol with sterile distilled water. Further dilutions were conducted in water.
(§5) The mutation frequency for development of resistance to the compounds tested was determined by the following method. A single colony of each strain was removed from the surface of a blood agar plate with a cotton swab, suspended in 5 ml of Mueller-Hinton broth (BBL), and streaked on the entire surface of five Mueller-Hinton agar plates. The plates were incubated overnight under aerobic conditions at 35° C., growth was removed from the agar using a sterile cotton swab, and the bacteria were suspended in 10 ml physiological saline. This bacterial suspension was the inoculum for the mutation frequency determinations. Standard plate counts were performed on the inoculum by performing serial dilutions and plating a 0.1 ml aliquot on the surface of ten Mueller-Hinton agar plates at each concentration. The plates were incubated for 18-24 hours at 35° C. under aerobic conditions and colony counts performed. Mean bacterial counts were calculated for the inoculum with each strain.
(§6) A 0.1 ml aliquot of the inoculum was then used to inoculate the entire surface of ten plates each containing 1, 10, and 100 μg/ml of the test antimicrobial agents. The plates were incubated for 18-24 hours at 35° C. under aerobic conditions and colony counts performed. Mean bacterial counts were calculated for each antimicrobial concentration and the mutation frequency calculated by dividing the number of colonies which grew on the drug containing media by the inoculum size.

[5] = tested on: S. aureus 30857, a rifampin-resistant isolate; assay: MIC, microbroth dilution, strain 30857; assay type: cell-based, Staphylococcus aureus; settings: strain 30857
Method: as §2, §3, §4
(§7) MIC (Minimum Inhibitory Concentration) determinations were performed using the microbroth dilution method. (National Committee for Clinical Laboratory Standards, 1990 Approved Standard […]. Methods for dilution antimicrobial susceptibility tests for bacteria that grow aerobically, 3rd edition. National Committee for Clinical Laboratory Standards, Villanova, Pa.) The results are shown in Table 3, wherein R is the alkyl group R in the rifamycin derivative (1).

S. aureus 6097 [6] = assay: Mutation frequency for resistance, strain 6097; assay type: cell-based, Staphylococcus aureus
Method: as §1, §2, §3, §4, §5, §6

S. aureus ATCC 29213 [7] = assay: MIC, microbroth dilution, strain ATCC 29213; assay type: cell-based, Staphylococcus aureus
Method: as §2, §3, §4, §7

S. aureus B83-1 [8] = assay: MIC, microbroth dilution, strain B83-1; assay type: cell-based, Staphylococcus aureus
Method: as §2, §3, §4, §7

S. aureus 6097 [9] = assay: MIC, microbroth dilution, strain 6097; assay type: cell-based, Staphylococcus aureus
Method: as §2, §3, §4, §7

[10] = tested on: S. aureus 30857, a rifampin-resistant isolate; assay type: cell-based, Staphylococcus aureus; settings: strain 30857
Method: as §1, §2, §3, §4, §5, §6

S. aureus ATCC 29213 [11] = assay: Mutation frequency for resistance, strain ATCC 29213; assay type: cell-based, Staphylococcus aureus
Method: as §1, §2, §3, §4, §5, §6

[12] = route IMM (intramammary), 1 hour after infection

SMILES | % reduction ([1]; 100X MIC) [%] | CFU/ml ISD (×10^3) ([1]; 100X MIC) | MIC [2] | toxicity (Oral toxicity in mice) | % reduction ([1]; 1X MIC) [%] | CFU/ml ISD (×10^3) ([1]; 1X MIC) | ED (mg/kg/d) Mastitis [3, 12] [mg/kg/day] | ED (mg/kg/d) Culture ([3]; route IMM (intramammary)) [mg/kg/day] | ED (mg/kg/d) Culture ([3]; route SC (subcutaneous)) [mg/kg/day] | ED (mg/kg/d) Mastitis ([3]; route SC (subcutaneous)) [mg/kg/day] | also measured
Cc1onc(-c2ccccc2Cl)c1C(=O)N[C@@H]1C(=O)N2[C@@H]1SC(C)(C)[C@@H]2C(=O)O [Cloxacillin, reference compound] | 0.0 | 5.9 ± 1.9 CFU/ml (×10^3) | – | – | – | – | – | – | – | – | –
CCN1CCN(c2cc(O)c3nc4c5c6c7c(C)c(O)c5c(=O)c(c-4oc3c2)NC(=O)/C(C)=C\C=C\C(C)C(O)C(C)C(O)C(C)C(OC(C)=O)C(C)C(OC)/C=C/OC(C)(O7)C6=O)CC1 (stereo not shown) [R = ethyl] | 100 | 0.0 CFU/ml (×10^3) | ≦0.03 μg/ml | did not show any toxicity | 97.0 | 0.09 ± 0.04 CFU/ml (×10^3) | 0.3 | 0.4 | 1.5 | 0.4 | –
COC1/C=C/OC2(C)Oc3c(C)c(O)c4c(=O)c(c5oc6cc(N7CCN(C8CC8)CC7)cc(O)c6nc-5c4c3C2=O)NC(=O)/C(C)=C\C=C\C(C)C(O)C(C)C(O)C(C)C(OC(C)=O)C1C (stereo not shown) [R = cyclopropyl] | – | – | – | did not show any toxicity | – | – | – | – | – | – | –
COC1/C=C/OC2(C)Oc3c(C)c(O)c4c(=O)c(c5oc6cc(N7CCN(CC(C)C)CC7)cc(O)c6nc-5c4c3C2=O)NC(=O)/C(C)=C\C=C\C(C)C(O)C(C)C(O)C(C)C(OC(C)=O)C1C (stereo not shown) [R = isobutyl] | 100 | 0.0 CFU/ml (×10^3) | ≦0.03 μg/ml | did not show any toxicity | 95.0 | 0.15 ± 0.06 CFU/ml (×10^3) | 0.3 | 0.3 | 3.5 | 3.5 | Mutation frequency (S. aureus B83-1 [4]; 1 μg/ml): 5.0 × 10^−8; Mutation frequency (S. aureus B83-1 [4]; 10 μg/ml): 5.2 × 10^−8; Mutation frequency (S. aureus B83-1 [4]; 100 μg/ml): 4.7 × 10^−8; MIC [5]: >4000 ng/mL; Mutation frequency (S. aureus 6097 [6]; 1 μg/ml): 9.5 × 10^−8; Mutation frequency (S. aureus 6097 [6]; 10 μg/ml): 8.9 × 10^−8; Mutation frequency (S. aureus 6097 [6]; 100 μg/ml): 9.9 × 10^−8; MIC (S. aureus ATCC 29213 [7]): 1.9 ng/mL (≈ 2.02 nM); MIC (S. aureus B83-1 [8]): 1.9 ng/mL (≈ 2.02 nM); MIC (S. aureus 6097 [9]): 0.98 ng/mL (≈ 1.04 nM); Mutation frequency ([10]; 1 μg/ml): >1.0 × 10^−7; Mutation frequency ([10]; 10 μg/ml): >1.0 × 10^−7; Mutation frequency ([10]; 100 μg/ml): >1.0 × 10^−7; Mutation frequency (S. aureus ATCC 29213 [11]; 1 μg/ml): 3.0 × 10^−8; Mutation frequency (S. aureus ATCC 29213 [11]; 10 μg/ml): 3.7 × 10^−8; Mutation frequency (S. aureus ATCC 29213 [11]; 100 μg/ml): 3.5 × 10^−8
COC1/C=C/OC2(C)Oc3c(C)c(O)c4c(=O)c(c5oc6cc(N7CCN(C(C)C)CC7)cc(O)c6nc-5c4c3C2=O)NC(=O)/C(C)=C\C=C\C(C)C(O)C(C)C(O)C(C)C(OC(C)=O)C1C (stereo not shown) [R = isopropyl] | 100 | 0.0 CFU/ml (×10^3) | ≦0.03 μg/ml | did not show any toxicity | 100 | 0.0 CFU/ml (×10^3) | 0.2 | 0.2 | 0.6 | 0.4 | –
